Bounds are passed on as bounds.

Results on 42 molecules are retold here after patent US8802700B2 (Vertex Pharmaceuticals Incorporated, priority 2010, dated 2014).

This assay deals with T1, ΔF508-CFTR (Homo sapiens, UniProt P13569, DEL508-508).
T1 construct: expressed in transfected cells
As to the kind of experiment: Membrane potential optical assay (FRET voltage-sensor dyes, VIPR), identification of potentiator compounds. The assay is classed as cell-based. To be noted: Table 3, assay not given; for Emax: read-out: % Activity (% Efficacy, relative efficacy). A digest of the protocol: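 Potentiator screen measured membrane potential via FRET between CC2-DMPE donor and DiSBAC2(3), read on VIPR II. Compound went in with the first addition of chloride-free gluconate bath; cells were ΔF508-CFTR-expressing NIH3T3 mouse fibroblasts, temperature-corrected at 27 °C for 24 h.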

T1 sequence (P13569 with tags, fused parts or gaps DEL508-508): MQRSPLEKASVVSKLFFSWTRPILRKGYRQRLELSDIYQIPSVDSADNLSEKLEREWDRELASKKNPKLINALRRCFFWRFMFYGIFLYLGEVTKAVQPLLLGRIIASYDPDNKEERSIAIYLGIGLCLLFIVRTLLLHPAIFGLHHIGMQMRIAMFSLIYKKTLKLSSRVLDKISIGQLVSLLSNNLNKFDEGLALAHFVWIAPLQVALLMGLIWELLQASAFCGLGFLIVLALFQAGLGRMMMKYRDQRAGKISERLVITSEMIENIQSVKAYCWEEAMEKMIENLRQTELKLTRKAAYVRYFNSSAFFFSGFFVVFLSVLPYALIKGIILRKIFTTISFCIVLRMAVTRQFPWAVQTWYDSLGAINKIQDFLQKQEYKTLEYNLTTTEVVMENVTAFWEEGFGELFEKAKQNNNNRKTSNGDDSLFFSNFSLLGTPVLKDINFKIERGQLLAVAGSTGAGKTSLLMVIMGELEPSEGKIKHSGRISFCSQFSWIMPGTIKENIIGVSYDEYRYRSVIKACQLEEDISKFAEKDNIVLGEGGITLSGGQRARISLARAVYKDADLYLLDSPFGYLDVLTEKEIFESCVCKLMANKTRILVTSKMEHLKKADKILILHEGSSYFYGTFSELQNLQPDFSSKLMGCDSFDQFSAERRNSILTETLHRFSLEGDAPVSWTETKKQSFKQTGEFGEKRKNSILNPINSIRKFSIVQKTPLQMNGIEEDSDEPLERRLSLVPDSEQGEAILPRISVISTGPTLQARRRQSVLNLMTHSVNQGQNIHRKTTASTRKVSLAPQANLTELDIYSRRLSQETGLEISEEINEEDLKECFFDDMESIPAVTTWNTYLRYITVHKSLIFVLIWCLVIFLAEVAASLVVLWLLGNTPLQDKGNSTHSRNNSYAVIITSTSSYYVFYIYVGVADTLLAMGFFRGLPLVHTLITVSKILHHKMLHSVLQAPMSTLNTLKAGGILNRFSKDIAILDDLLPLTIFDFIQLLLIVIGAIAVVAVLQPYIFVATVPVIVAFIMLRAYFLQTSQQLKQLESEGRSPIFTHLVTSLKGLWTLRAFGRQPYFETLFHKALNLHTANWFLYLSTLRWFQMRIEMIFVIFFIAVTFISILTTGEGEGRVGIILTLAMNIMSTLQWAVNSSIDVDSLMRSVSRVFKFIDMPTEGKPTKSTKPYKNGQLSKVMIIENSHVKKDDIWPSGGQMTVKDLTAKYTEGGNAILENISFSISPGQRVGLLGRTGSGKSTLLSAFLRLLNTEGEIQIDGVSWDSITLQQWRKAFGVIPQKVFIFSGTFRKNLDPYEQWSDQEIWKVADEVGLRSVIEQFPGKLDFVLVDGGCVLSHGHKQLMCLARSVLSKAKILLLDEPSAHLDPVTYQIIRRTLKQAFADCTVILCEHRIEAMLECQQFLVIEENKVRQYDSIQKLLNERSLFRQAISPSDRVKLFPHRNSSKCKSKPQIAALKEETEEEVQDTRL

For `CC(C)(CNC(=O)OCC1CCOC1)c1ccc(NC(=O)c2c[nH]c3ccccc3c2=O)cc1` (stereo not shown) [Compound 396, [2-methyl-2-[4-[(4-oxo-1H-quinolin-3-yl)carbonylamino]phenyl]-propyl]aminoformic acid tetrahydrofuran-3-ylmethyl ester], the Emax fell in the range of 25 to 100%. For the molecule `O=C(Nc1ccc(-c2ccccc2)cc1)c1c[nH]c2ccccc2c1=O` [Compound 397, 4-oxo-N-(4-phenylphenyl)-1H-quinoline-3-carboxamide], the Emax is 25 to 100%. As to `Cc1ccc(S(=O)(=O)Nc2ccccc2NC(=O)c2c[nH]c3ccccc3c2=O)cc1` [Compound 398, 4-oxo-N-[2-(p-tolylsulfonylamino)phenyl]-1H-quinoline-3-carboxamide], the Emax fell in the range of 25 to 100%. On to `CNc1ccc(C(C)C)c(NC(=O)c2c[nH]c3ccccc3c2=O)c1` [Compound 399, N-(2-isopropyl-5-methylamino-phenyl)-4-oxo-1H-quinoline-3-carboxamide], for which the Emax lay within 25 to 100%. On the same count and under the same terms, then `O=C(Nc1ccc(N2CCOCC2)nc1)c1c[nH]c2ccccc2c1=O` [Compound 400, N-(6-morpholino-3-pyridyl)-4-oxo-1H-quinoline-3-carboxamide], with less than 25%. Consider `Cc1cccc(-c2ccccc2NC(=O)c2c[nH]c3ccccc3c2=O)c1C` [Compound 401, N-[2-(2,3-dimethylphenyl)phenyl]-4-oxo-1H-quinoline-3-carboxamide], for which the Emax was in the range of 25 to 100%. Take `O=C(Nc1ccc(-c2ccccc2)cn1)c1c[nH]c2ccccc2c1=O` [Compound 402, 4-oxo-N-(5-phenyl-2-pyridyl)-1H-quinoline-3-carboxamide]: the Emax was less than 25%. Turning to `CC1(c2cc(F)c(NC(=O)c3cnc4ccccc4c3O)cc2O)CCCCCCC1` [Compound 403, N-[2-fluoro-5-hydroxy-4-(1-methylcyclooctyl)-phenyl]-4-hydroxy-quinoline-3-carboxamide], the Emax lay in the range of 25 to 100%. For `COc1cccc(OC)c1-c1cc2cc[nH]c2cc1NC(=O)c1c[nH]c2ccccc2c1=O` [Compound 404, N-[5-(2,6-dimethoxyphenyl)-1H-indol-6-yl]-4-oxo-1H-quinoline-3-carboxamide], the Emax lay within 25 to 100%. Turning to `O=C(Nc1ccc(Cl)cc1)c1c[nH]c2ccccc2c1=O` [Compound 405, N-(4-chlorophenyl)-4-oxo-1H-quinoline-3-carboxamide], the Emax fell in the range of 25 to 100%. In the case of `CN(c1ccc(F)cc1)S(=O)(=O)c1ccc2[nH]cc(C(=O)Nc3cc4[nH]ccc4cc3C(C)(C)C)c(=O)c2c1` [Compound 406, 6-[(4-fluorophenyl)-methyl-sulfamoyl]-4-oxo-N-(5-tert-butyl-1H-indol-6-yl)-1H-quinoline-3-carboxamide], the Emax fell in the range of 25 to 100%. The same measure, in the same setting: the same measure for `CC(C)(C)c1cc(F)c(NC(=O)c2c[nH]c3cccc(O)c3c2=O)cc1O` [Compound 407, N-(2-fluoro-5-hydroxy-4-tert-butyl-phenyl)-5-hydroxy-4-oxo-1H-quinoline-3-carboxamide]: 25 to 100%. In the case of `COc1cccc(NC(=O)c2c[nH]c3ccccc3c2=O)c1` [Compound 408, N-(3-methoxyphenyl)-4-oxo-1H-quinoline-3-carboxamide], the Emax was 25 to 100%. On to `CCc1ccc(N(C)C)cc1NC(=O)c1c[nH]c2ccccc2c1=O` [Compound 409, N-(5-dimethylamino-2-ethyl-phenyl)-4-oxo-1H-quinoline-3-carboxamide], for which the Emax lay in the range of 25 to 100%.

With `O=C(Nc1ccccc1-c1ccc(Oc2ccccc2)cc1)c1c[nH]c2ccccc2c1=O` [Compound 410, 4-oxo-N-[2-(4-phenoxyphenyl)phenyl]-1H-quinoline-3-carboxamide], the Emax was more than 100%. On the same count and under the same terms, the same measure for `O=C(Nc1ccccc1)c1c[nH]c2cc(Cl)ccc2c1=O` [Compound 411, 7-chloro-4-oxo-N-phenyl-1H-quinoline-3-carboxamide]: 25 to 100%; for `CCOC(=O)c1c(NC(=O)c2c[nH]c3ccccc3c2=O)ccc2cc[nH]c12` [Compound 412, 6-[(4-oxo-1H-quinolin-3-yl)carbonylamino]-1H-indole-7-carboxylic acid ethyl ester]: 25 to 100%. In the case of `O=C(Nc1ccccc1Oc1ccccc1)c1c[nH]c2ccccc2c1=O` [Compound 413, 4-oxo-N-(2-phenoxyphenyl)-1H-quinoline-3-carboxamide], the Emax was 25 to 100%. For `O=C(Nc1ccc2nc[nH]c2c1)c1c[nH]c2ccccc2c1=O` [Compound 414, N-(3H-benzoimidazol-5-yl)-4-oxo-1H-quinoline-3-carboxamide], the Emax is less than 25%. As for `COc1c(C(=O)Nc2ccc(C(C)(C)C)c(O)c2)cnc2ccccc12` [Compound 415, N-(3-Hydroxy-4-tert-butyl-phenyl)-4-methoxy-quinoline-3-carboxamide], the Emax is 25 to 100%. In the case of `CCCOC(=O)NCC(C)(C)c1ccc(NC(=O)c2c[nH]c3ccccc3c2=O)cc1` [Compound 416, [2-methyl-2-[4-[(4-oxo-1H-quinolin-3-yl)carbonylamino]phenyl]-propyl]aminoformic acid propyl ester], the Emax lay in the range of 25 to 100%. Same read-out and setting: the same measure for `O=C(Nc1ccccc1-c1csc2ccccc12)c1c[nH]c2ccccc2c1=O` [Compound 417, N-(2-(benzo[b]thiophen-3-yl)phenyl)-1,4-dihydro-4-oxoquinoline-3-carboxamide]: 25 to 100%; for `CN(C)c1cccc(NC(=O)c2c[nH]c3ccccc3c2=O)c1` [Compound 418, N-(3-dimethylaminophenyl)-4-oxo-1H-quinoline-3-carboxamide]: 25 to 100%; for `CC(=O)Nc1cccc(NC(=O)c2c[nH]c3ccccc3c2=O)c1` [Compound 419, N-(3-acetylaminophenyl)-4-oxo-1H-quinoline-3-carboxamide]: less than 25%.

Regarding `CCOC(=O)C(C)(C)c1ccc(NC(=O)c2c[nH]c3ccccc3c2=O)cc1` [Compound 420, 2-methyl-2-[4-[(4-oxo-1H-quinolin-3-yl)carbonylamino]phenyl]-propanoic acid ethyl ester], the Emax lay in the range of 25 to 100%. As for `COc1cc(NC(=O)c2c[nH]c3ccccc3c2=O)c(C(F)(F)F)cc1C(C)(C)C` [Compound 421, N-[5-methoxy-4-tert-butyl-2-(trifluoromethyl)phenyl]-4-oxo-1H-quinoline-3-carboxamide], the Emax lay within 25 to 100%. For the molecule `CCOCCc1c[nH]c2cc(NC(=O)c3c[nH]c4ccccc4c3=O)ccc12` [Compound 423, N-[3-(2-ethoxyethyl)-1H-indol-6-yl]-4-oxo-1H-quinoline-3-carboxamide], the Emax was in the range of 25 to 100%. Same read-out and setting: the same measure for `O=C(Nc1ccccc1-c1ccc(Cl)cc1)c1c[nH]c2ccccc2c1=O` [Compound 424, N-[2-(4-chlorophenyl)phenyl]-4-oxo-1H-quinoline-3-carboxamide]: 25 to 100%. One may read the EC50 as the concentration that produces a half-maximal response. Consider `CC(C)c1ccc(NC(=O)c2c[nH]c3ccccc3c2=O)cc1` [Compound 425, N-(4-isopropylphenyl)-4-oxo-1H-quinoline-3-carboxamide], for which the EC50 is less than 10 µM and the Emax was in the range of 25 to 100%. Take `CC(C)(C)c1cc(Cl)c(O)cc1NC(=O)c1c[nH]c2ccccc2c1=O` [Compound 426, N-(4-chloro-5-hydroxy-2-tert-butyl-phenyl)-4-oxo-1H-quinoline-3-carboxamide]: the Emax is 25 to 100%. Take `CC(C)(C)OC(=O)N1CCc2c(cccc2NC(=O)c2c[nH]c3ccccc3c2=O)C1` [Compound 427, 5-[(4-oxo-1H-quinolin-3-yl)carbonylamino]-1,2,3,4-tetrahydroisoquinoline-2-carboxylic acid tert-butyl ester]: the Emax lay within 25 to 100%. `CC(C)(C)c1ccc(NC(=O)c2c[nH]c3ccccc3c2=O)cc1O` [Compound 428, N-(3-hydroxy-4-tert-butyl-phenyl)-4-oxo-1H-quinoline-3-carboxamide]: the Emax fell in the range of 25 to 100%. In the case of `Nc1cc(NC(=O)c2c[nH]c3ccccc3c2=O)cc(C(F)(F)F)c1` [Compound 429, N-[3-amino-5-(trifluoromethyl)phenyl]-4-oxo-1H-quinoline-3-carboxamide], the Emax is 25 to 100%. Still for that read-out and setting: then `Cc1cccc(C(C)C)c1NC(=O)c1c[nH]c2ccccc2c1=O` [Compound 430, N-(2-isopropyl-6-methyl-phenyl)-4-oxo-1H-quinoline-3-carboxamide], with 25 to 100%.

As to `Nc1cccc(NC(=O)c2c[nH]c3ccccc3c2=O)c1` [Compound 431, N-(3-aminophenyl)-4-oxo-1H-quinoline-3-carboxamide], the Emax lay in the range of 25 to 100%. The same measure, in the same setting: the same measure for `CC(C)c1ccc(-c2ccccc2NC(=O)c2c[nH]c3ccccc3c2=O)cc1` [Compound 432, N-[2-(4-isopropylphenyl)phenyl]-4-oxo-1H-quinoline-3-carboxamide]: 25 to 100%; for `Cc1ccc(C)c(NC(=O)c2c[nH]c3ccccc3c2=O)c1` [Compound 434, N-(2,5-dimethylphenyl)-4-oxo-1H-quinoline-3-carboxamide]: 25 to 100%. Same read-out and setting: then `O=C(Nc1cccnc1Oc1ccccc1F)c1c[nH]c2ccccc2c1=O` [Compound 435, N-[2-(2-fluorophenoxy)-3-pyridyl]-4-oxo-1H-quinoline-3-carboxamide], with 25 to 100%; and `COc1ccc(-c2ccccc2NC(=O)c2c[nH]c3ccccc3c2=O)cc1OC` [Compound 436, N-[2-(3,4-dimethoxyphenyl)phenyl]-4-oxo-1H-quinoline-3-carboxamide], with 25 to 100%. Take `O=C(Nc1ccc2c(c1)OCO2)c1c[nH]c2ccccc2c1=O` [Compound 437, N-benzo[1,3]dioxol-5-yl-4-oxo-1H-quinoline-3-carboxamide]: the Emax was less than 25%. Regarding `CC(C)(C)c1cc(C(C)(C)C)c(C(F)F)cc1NC(=O)c1c[nH]c2ccccc2c1=O` [Compound 438, N-[5-(difluoromethyl)-2,4-ditert-butyl-phenyl]-4-oxo-1H-quinoline-3-carboxamide], the Emax lay in the range of 25 to 100%. For `COc1ccc(NC(=O)c2c[nH]c3ccccc3c2=O)cc1` [Compound 439, N-(4-methoxyphenyl)-4-oxo-1H-quinoline-3-carboxamide], the Emax was 25 to 100%.
